Source: patent US12344623B2, “Thiazolopyridine derivatives as adenosine receptor antagonists” (Merck Patent GmbH, priority 2019, dated 2025)

Assays:
Assay type in all cases: cell-based
[1] = molecular target: T1, human A2B receptor (Homo sapiens, UniProt P29275); experiment: Functional A2B receptor activity, recombinant HEK293 cells, cAMP (HTRF), agonist NECA; details: read-out: Functional A2B receptor activity, HEK293, cAMP, IC50
T1 construct: expressed in transfected cells; host or cells: HEK293
T1 sequence (P29275 1-332): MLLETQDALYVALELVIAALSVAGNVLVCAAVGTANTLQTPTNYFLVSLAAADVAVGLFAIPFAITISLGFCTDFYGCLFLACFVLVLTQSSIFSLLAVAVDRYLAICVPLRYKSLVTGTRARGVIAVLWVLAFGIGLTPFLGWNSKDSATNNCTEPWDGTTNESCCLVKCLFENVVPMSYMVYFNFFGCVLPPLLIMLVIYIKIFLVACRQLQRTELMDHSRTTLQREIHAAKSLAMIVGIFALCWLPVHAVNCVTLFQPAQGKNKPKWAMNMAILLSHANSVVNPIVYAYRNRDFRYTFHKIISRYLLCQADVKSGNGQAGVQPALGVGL
Summary of the method: (§1)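 Intracellular cAMP, the adenosine receptor second messenger, is measured by HTRF following 30 min co-incubation with forskolin, agonist and test compound. Normalization uses DMSO as the neutral control and an inhibitor as the reference control. Fitted curves yield the values.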

[2] = molecular target: T2, human A1 receptor (Homo sapiens, UniProt P30542); experiment: Functional A1 receptor activity, recombinant CHO cells, cAMP (HTRF), forskolin, agonist CPA; details: recombinant CHO cells, forskolin, agonist CPA; read-out: Functional A1 receptor activity, CHO, cAMP, IC50
T2 construct: expressed in transfected cells; host or cells: CHO
T2 sequence (P30542 1-326): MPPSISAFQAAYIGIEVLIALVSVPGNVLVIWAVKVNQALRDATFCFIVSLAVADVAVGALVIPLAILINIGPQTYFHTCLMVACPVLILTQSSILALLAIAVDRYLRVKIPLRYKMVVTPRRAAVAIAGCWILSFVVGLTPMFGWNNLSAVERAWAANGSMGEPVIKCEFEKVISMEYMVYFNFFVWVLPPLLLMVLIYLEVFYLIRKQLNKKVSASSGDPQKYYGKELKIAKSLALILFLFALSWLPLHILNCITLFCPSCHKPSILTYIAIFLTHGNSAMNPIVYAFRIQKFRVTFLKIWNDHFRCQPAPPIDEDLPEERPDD
Summary of the method: (§2)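 Normalized HTRF cAMP signals (inhibitor and DMSO controls as references) were curve-fitted; assays used forskolin-stimulated CHO cells with A1 or A3, agonist CPA or IB-MECA respectively, 30 min compound incubation.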

[3] = molecular target: T3, human A3 receptor (Homo sapiens, UniProt P0DMS8); experiment: Functional A3 receptor activity, recombinant CHO cells, cAMP (HTRF), forskolin, agonist IB-MECA; details: recombinant CHO cells, forskolin, agonist IB-MECA; read-out: Functional A3 receptor activity, CHO, cAMP, IC50
T3 construct: expressed in transfected cells; host or cells: CHO
T3 sequence (P0DMS8 1-318): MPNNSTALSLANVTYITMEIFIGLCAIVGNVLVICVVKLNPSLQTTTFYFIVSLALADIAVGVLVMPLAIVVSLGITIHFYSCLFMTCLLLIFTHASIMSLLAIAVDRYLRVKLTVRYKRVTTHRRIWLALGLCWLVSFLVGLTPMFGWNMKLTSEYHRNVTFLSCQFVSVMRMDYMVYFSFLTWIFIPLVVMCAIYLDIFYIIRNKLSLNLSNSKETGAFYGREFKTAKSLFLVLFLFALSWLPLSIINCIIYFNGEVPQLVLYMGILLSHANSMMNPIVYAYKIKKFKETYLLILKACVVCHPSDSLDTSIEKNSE
Summary of the method: as §2

[4] = tested on: mouse Pan T cells; experiment: mTcell assay, cAMP, agonist NECA; details: Mus musculus, T-cell
Source text: Adenosine (Ado) in tumor microenvironment can inhibit T cell activity by signaling through A2A receptors and suppress cytokine secretion by T cells. […] Potential A2A antagonists or A2A/A2B dual antagonists can rescue T cells from this inhibition. Herein, we describe the in vitro system we established using Pan T cells from mouse spleens to screen potential A2A antagonists or A2A/A2B dual antagonists for their activity. The method described involves the use of CD3/CD28 pre-coated beads to stimulate Pan T cells purified from mouse splenocytes, combined with the addition of A2A agonist along with potential A2A or A2A/A2B dual antagonists to evaluate potentiation of T cell cytokine production.
Pan T-cells are isolated from black 6 mice by manual dissociation and purified using a Miltenyi Pan T-cell isolation kit. The isolated T-cells are activated in 96 well plates for 48 hours using anti-CD3/CD28 beads in T-cell proliferation media.
After 48 hours, the T-cells are pooled, counted and suspended in serum free media containing 0.1% BSA. The cells are plated at 50,000 cells per well in 10 ul of media and incubated for 2 hours at 37° C. Test compounds are dispensed into the wells at a 10-point dose response, starting at a concentration of 10 uM. […] The plates are incubated for 30 minutes at 37° C. and assayed for cAMP levels using the Cisbio cAMP Dynamic2 reagent kit by adding 10 ul of the kit reagents to each well. The plates are incubated for 1 hour at room temperature and the HTRF signal is read on an Envision plate reader. The raw data is analyzed in Genedata Screener and the resulting data is loaded into the database.

[5] = molecular target: T4, human A2A receptor (Homo sapiens, UniProt P29274); experiment: Human T cells, endogenous A2A receptor, cAMP, agonist NECA; details: read-out: hTcell data, cAMP, IC50
Method: The endogenous functional activity of the Gs-coupled human A2A receptor was measured in T cells, where this receptor is highly expressed. Determination of receptor activity was done by quantification of cAMP, which is a second messenger for adenosine receptors.
In short, human pan T cells were isolated from human PBMC (MACS Pan T Cell Isolation Kit, Miltenyi Biotec) that have been derived from fresh whole blood. The T cells were seeded in 384-well microtiter plates and treated with test compounds. […] Finally, HTRF reagents (cAMP Femto Kit, CisBio) were added to the wells, and after 1 h cellular cAMP levels were determined using the ENVISION (Perkin Elmer) plate reader.
The obtained raw data were normalized against the inhibitor control and the neutral control (DMSO) and the normalized data were fitted using Genedata Screener software.

[6] = molecular target: T4, human A2A receptor; experiment: Functional A2A receptor activity, recombinant HEK293 cells, cAMP (HTRF), agonist NECA; set-up: expressed in transfected cells; host or cells: HEK293; details: read-out: Functional A2A receptor activity, HEK293, cAMP, IC50
Summary of the method: as §1

T4 sequence (P29274 whole entry): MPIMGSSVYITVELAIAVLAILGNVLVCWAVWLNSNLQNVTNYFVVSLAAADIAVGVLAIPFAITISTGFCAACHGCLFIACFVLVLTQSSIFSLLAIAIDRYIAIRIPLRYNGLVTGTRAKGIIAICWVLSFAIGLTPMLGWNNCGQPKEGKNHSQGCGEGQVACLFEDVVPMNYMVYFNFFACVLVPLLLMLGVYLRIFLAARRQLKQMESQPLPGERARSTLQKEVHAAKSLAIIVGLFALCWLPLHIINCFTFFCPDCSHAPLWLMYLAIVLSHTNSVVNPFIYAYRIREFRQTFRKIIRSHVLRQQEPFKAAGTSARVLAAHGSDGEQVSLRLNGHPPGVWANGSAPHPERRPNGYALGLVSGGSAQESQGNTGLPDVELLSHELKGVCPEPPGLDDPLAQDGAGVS

An IC50 [1] of under 10 nM, an IC50 [2] of under 1000 nM and an IC50 [3] of over 1000 nM were found for `COc1ncc(-c2ccccc2)c2sc(NC(=O)N3CC[C@@H](CN)C3)nc12` [Compound 3, (S)-3-Aminomethyl-pyrrolidine-1-carboxylic acid (4-methoxy-7-phenyl-thiazolo[4,5-c]pyridin-2-yl)-amide] in this work. The IC50 [4] was under 10 nM, the IC50 [5] was under 10 nM and the IC50 [6] was under 10 nM.

An IC50 [1] of under 10 nM, an IC50 [2] of over 1000 nM and an IC50 [3] of over 1000 nM were found for `COc1nc(F)c(N2CCOCC2)c2sc(NC(=O)N3CCC4(CCCOC4)C3)nc12` (stereo not drawn) [Compound 7, 7-Oxa-2-aza-spiro[4.5]decane-2-carboxylic acid (6-fluoro-4-methoxy-7-morpholin-4-yl-thiazolo[4,5-c]pyridin-2-yl)-amide] in this work. The IC50 [4] was under 10 nM, the IC50 [5] was under 10 nM and the IC50 [6] was under 10 nM.

An IC50 [1] of under 100 nM, an IC50 [2] of over 1000 nM and an IC50 [3] of over 1000 nM were found for `COc1nc(F)c(N2CCOCC2)c2sc(NC(=O)N3CC[C@]4(CCCOC4)C3)nc12` [Compound 10, (R)-7-Oxa-2-aza-spiro[4.5]decane-2-carboxylic acid (6-fluoro-4-methoxy-7-morpholin-4-yl-thiazolo[4,5-c]pyridin-2-yl)-amide] in this work. For the same compound, the IC50 [4] was under 10 nM, the IC50 [5] was under 10 nM and the IC50 [6] was under 10 nM.

An IC50 [1] of under 10 nM, an IC50 [2] of under 1000 nM and an IC50 [3] of over 1000 nM were found for `COc1nc(F)c(-c2ccccc2)c2sc(NC(=O)N3CC[C@@]4(CCCOC4)C3)nc12` [Compound 13, (5S)-N-{6-fluoro-4-methoxy-7-phenyl-[1,3]thiazolo[4,5-c]pyridin-2-yl}-7-oxa-2-azaspiro[4.5]decane-2-carboxamide] in this work. For the same compound, the IC50 [4] was under 10 nM, the IC50 [5] was under 10 nM and the IC50 [6] was under 10 nM.

An IC50 [1] of under 100 nM, an IC50 [2] of over 1000 nM and an IC50 [3] of over 1000 nM were found for `COc1nc(F)c(C2CCOCC2)c2sc(NC(=O)N3CCC4(CCCOC4)C3)nc12` (stereo not drawn) [Compound 31, 7-Oxa-2-aza-spiro[4.5]decane-2-carboxylic acid [6-fluoro-4-methoxy-7-(tetrahydro-pyran-4-yl)-thiazolo[4,5-c]pyridin-2-yl]-amide] in this work. It also gave an IC50 [4] of under 10 nM, an IC50 [5] of under 10 nM and an IC50 [6] of under 10 nM.

An IC50 [1] of under 10 nM, an IC50 [2] of over 1000 nM and an IC50 [3] of over 1000 nM were found for `COc1ncc(-c2ccco2)c2sc(NC(=O)N3CCC4(CCOCC4)C3)nc12` [Compound 48, 8-Oxa-2-aza-spiro[4.5]decane-2-carboxylic acid (7-furan-2-yl-4-methoxy-thiazolo[4,5-c]pyridin-2-yl)-amide] in this work. The IC50 [4] was under 100 nM, the IC50 [5] was under 100 nM and the IC50 [6] was under 10 nM.

An IC50 [1] of under 10 nM, an IC50 [2] of over 1000 nM and an IC50 [3] of over 1000 nM were found for `COc1nc(F)c(C2CCOCC2)c2sc(NC(=O)c3ccc(C(=O)N(C)CCO)cc3)nc12` [Compound 50, N-[6-Fluoro-4-methoxy-7-(tetrahydro-pyran-4-yl)-thiazolo[4,5-c]pyridin-2-yl]-N′-(2-hydroxy-ethyl)-N′-methyl-terephthalamide] in this work. The IC50 [4] was under 100 nM, the IC50 [5] was under 10 nM and the IC50 [6] was under 10 nM.

An IC50 [1] of under 100 nM, an IC50 [2] of over 1000 nM and an IC50 [3] of over 1000 nM were found for `COc1ncc(C2=CCOCC2)c2sc(NC(=O)N3CCC4(CCNCC4)C3)nc12` [Compound 98, 2,8-Diaza-spiro[4.5]decane-2-carboxylic acid [7-(3,6-dihydro-2H-pyran-4-yl)-4-methoxy-thiazolo[4,5-c]pyridin-2-yl]-amide] in this work. For the same compound, the IC50 [4] was under 100 nM, the IC50 [5] was under 10 nM and the IC50 [6] was under 10 nM.

An IC50 [1] of under 10 nM, an IC50 [2] of over 1000 nM and an IC50 [3] of over 1000 nM were found for `COc1ncc(-c2ccccc2)c2sc(NC(=O)N3CCC(N4C(=O)CCC4=O)CC3)nc12` [Compound 99, 4-(2,5-Dioxo-pyrrolidin-1-yl)-piperidine-1-carboxylic acid (4-methoxy-7-phenyl-thiazolo[4,5-c]pyridin-2-yl)-amide] in this work. For the same compound, the IC50 [4] was under 100 nM, the IC50 [5] was under 100 nM and the IC50 [6] was under 10 nM.

An IC50 [1] of under 10 nM, an IC50 [2] of under 1000 nM and an IC50 [3] of over 1000 nM were found for `COc1ncc(C2=CCOCC2)c2sc(NC(=O)N3CCC(N4C(=O)CCC4=O)CC3)nc12` [Compound 100, 4-(2,5-Dioxo-pyrrolidin-1-yl)-piperidine-1-carboxylic acid [7-(3,6-dihydro-2H-pyran-4-yl)-4-methoxy-thiazolo[4,5-c]pyridin-2-yl]-amide] in this work. For the same compound, the IC50 [4] was under 100 nM, the IC50 [5] was under 10 nM and the IC50 [6] was under 10 nM.

An IC50 [1] of under 100 nM, an IC50 [2] of over 1000 nM and an IC50 [3] of over 1000 nM were found for `COc1ncc(C2=CCOCC2)c2sc(NC(=O)N3CCC4(CCCNC4)C3)nc12` (stereo not drawn) [Compound 102, 2,7-Diaza-spiro[4.5]decane-2-carboxylic acid [7-(3,6-dihydro-2H-pyran-4-yl)-4-methoxy-thiazolo[4,5-c]pyridin-2-yl]-amide] in this work. It also gave an IC50 [4] of under 10 nM, an IC50 [5] of under 10 nM and an IC50 [6] of under 10 nM.

An IC50 [1] of under 100 nM, an IC50 [2] of over 1000 nM and an IC50 [3] of over 1000 nM were found for `CNc1cccc(-c2cnc(OC)c3nc(NC(=O)N4CCC5(CCOCC5)C4)sc23)c1` [Compound 112, 8-Oxa-2-aza-spiro[4.5]decane-2-carboxylic acid [4-methoxy-7-(3-methylamino-phenyl)-thiazolo[4,5-c]pyridin-2-yl]-amide] in this work. The IC50 [4] was under 10 nM, the IC50 [5] was under 10 nM and the IC50 [6] was under 10 nM.

An IC50 [1] of under 10 nM, an IC50 [2] of under 1000 nM and an IC50 [3] of over 1000 nM were found for `COc1ncc(C2=CCOCC2)c2sc(NC(=O)N3CCC(N4C(=O)CNC4=O)CC3)nc12` [Compound 131, 4-(2,5-Dioxo-imidazolidin-1-yl)-piperidine-1-carboxylic acid [7-(3,6-dihydro-2H-pyran-4-yl)-4-methoxy-thiazolo[4,5-c]pyridin-2-yl]-amide] in this work. For the same compound, the IC50 [4] was under 100 nM, the IC50 [5] was under 10 nM and the IC50 [6] was under 10 nM.

An IC50 [1] of under 10 nM, an IC50 [2] of under 1000 nM and an IC50 [3] of over 1000 nM were found for `COc1ncc(-c2ccccc2)c2sc(NC(=O)N3CCC(N4C(=O)CNC4=O)CC3)nc12` [Compound 137, 4-(2,5-Dioxo-imidazolidin-1-yl)-piperidine-1-carboxylic acid (4-methoxy-7-phenyl-thiazolo[4,5-c]pyridin-2-yl)-amide] in this work. The IC50 [4] was under 10 nM, the IC50 [5] was under 10 nM and the IC50 [6] was under 10 nM.
